Experimental data from a melting point compilation (Tetko et al.; mined from patent text by program, amines drawn as free bases though some values may be those of a salt).

Structure (SMILES)	melting point [°C]
CCC1(c2cccc(O)c2)CCCCN(C)C1 (stereo not drawn)	128 to 133
O=C(O)CN1C(=O)C(=CCCCCl)SC1=S	155 to 157
COc1ccc(N2CCN(c3c(C)c(C)c4c(c3C)C(CCc3ccccc3)C(C)(C)O4)CC2)cc1 (stereo not drawn)	92 to 94
CCN1C=C(C(=O)O)C(=O)CC1c1cccnc1 (stereo not drawn)	197 to 199
COc1ccc(S/C(=C/C(=O)NO)CCCCc2ccccc2)cc1OC	148 to 150
CC1CN(c2c(F)c(N)c3c(=O)c(C(=O)O)cn(C4CC4)c3c2OC(F)F)CCN1 (stereo not drawn)	283 to 286
Cc1cc(SC(C)C)c(NC(=O)CCCCCCSc2nc3cccc(C(F)(F)F)c3o2)c(SC(C)C)n1	76 to 78
O=C(O)c1csc(C(F)F)c1	131 to 132
COc1c(Cl)cc(NC(=O)OC(C)(C)C)cc1Cl	115 to 116
Cc1ccc(CNC(=O)C2=C(C(=O)Nc3ccc(Br)cc3F)CCCC2)cc1	167 to 168
COc1ccc(CN2C(=O)C(c3cc(C#N)c(O)cc3O)c3ccccc32)cc1 (stereo not drawn)	162 to 163
CCOC(=O)c1c(C)nn(-c2c(Cl)cc(Cl)cc2Cl)c1N	150
Cc1nc(-c2ccc(C#N)cc2)oc1C(=O)NCCCCN1CCC(c2ccc3c(c2OCCO)CCCC3)CC1	109 to 111
CCOc1ccc(-n2c(N)cc(=O)nc2SC)cc1	177 to 181
C[C@@H](Nc1c(NCc2ccc(F)cc2)c(=O)c1=O)C(C)(C)C	289 to 291
CCCCCCCN(CCCCCSc1nc(-c2ccccc2)c(-c2ccccc2)[nH]1)C(=S)Nc1ccc(F)cc1F	116 to 118
CC(=NNC(=O)c1cc([N+](=O)[O-])cc2ccccc12)c1ccncc1	228
COc1ccc(Cc2cc3c(cc2OC)OCO3)cc1	56 to 57
CON=Cc1ncn2c1[C@@H]1CCN1C(=O)c1c(Cl)cccc1-2	199 to 200
COc1ccc(-c2nc(CN)no2)cc1	66 to 68
CCOC(=O)CCN(C)CC(C(=O)OC)c1cc(OC)c(CC)c(OC)c1 (stereo not drawn)	74 to 75

Structure (SMILES)	melting point [°C]
COC1CN(c2ccc([N+](=O)[O-])cc2F)C1	57.5 to 58
COc1ccc(C#Cc2cc(OC)c(OC)cc2C=O)cc1OC	148 to 149
Nc1nc2c(Oc3cc(-c4ccc(C(F)(F)F)cc4)ncn3)cccc2s1	232 to 234
CC(c1ccccc1)C(Br)C(=O)c1ccccc1 (stereo not drawn)	69 to 71
O=C(Nc1ccccc1)O[C@@H]1CN=C(c2ccoc2)O[C@H]1c1ccccc1 (racemic)	130
CCc1cc(-c2cccc(N)n2)c(OC)cc1OCCN(C)C	109
O=C1c2ccccc2C(=O)c2sc(-c3ccc(F)cc3)nc21	> 260
CC(C)(CO)Cc1ccc(CC(C)(C)CO)cc1	104 to 105
N#Cc1cccc(-c2nc(-c3ccc(C(N)=O)cc3)cc3cccnc23)c1	237 to 240
Cc1c(C(=O)Nc2ccc(OCC(C)(C)C)c(C#N)c2)cnn1C(C)(C)C	143 to 144
Cn1c(=O)c2c(nc(/C=C/c3ccc4c(c3)OCO4)n2C)n(C)c1=O	> 300
COC(=O)N(CCCc1ccccc1)[C@H]1CC[C@H](c2ccc(O)cc2)CC1	128 to 133
CCCNCCOc1ccc(NC(=O)c2n[nH]c3c2C(=O)CCC3)cn1	120
CNC(=O)c1cccc(F)c1Nc1nc(Nc2ccc3c(c2)CCN(CCOC)CC3)ncc1Br	99 to 105
CC(=O)c1cc(N2CCCC2)ccc1NC(=O)c1ccc(OCc2ccccc2)cc1	175 to 178
O=[N+]([O-])c1ccc(OCCc2c[nH]cn2)cc1	197 to 200
CCCc1c(C(=O)C2CC2)c2ccc(C(N)=O)cc2n1Cc1cc2c(cc1Cl)OCO2	162 to 164
CC(=O)Nc1ccc(OCCCOc2ccc(Cl)c(Cl)c2)cc1	135 to 137
CCOCc1ccc2oc(C(=O)OCC)c(C)c2c1O	97 to 98
CCCOc1cc(CCCOc2c(CC(=O)O)cccc2OC)n(Cc2ccc(F)cc2F)n1	77 to 80
CCCCNc1cccc2c1C(=O)c1ccccc1C2=O	78 to 79

More lines, now with the values ahead:

melting point [°C]	Structure (SMILES)
229	Nc1nc2ccccc2n1CCCN1CCN(C(c2ccccc2)c2ccccc2)CC1
169 to 170	CC(C)c1nc(-c2ncn3c2CN(C(=O)N2CCCC2)c2c(F)cccc2-3)no1
128 to 134	CCOc1ccc(-c2ccc(-c3ccc(C4CCC(c5c(F)cccc5F)=N4)cc3)cc2)s1 (stereo not drawn)
165 to 169	NC(=NO)c1cccc(Oc2ccc3c(c2)S(=O)(=O)N=C2CCCN23)c1
95 to 96	CC(O)c1cc(Br)ccc1N (stereo not drawn)
71 to 73	C=CCC(=NO)C(C)=NNc1c(Cl)cc(C(F)(F)F)cc1Cl
62 to 64	Cc1ccc(C=Cc2csc3ccccc23)s1
132 to 134	C#CCN1C(=O)COc2cc(F)c(N)cc21
166	COCCN1CCn2c1nc(C(=O)NCc1ccc(F)cc1)c(O)c2=O
149 to 151	O=C(O)c1ccccc1C(=O)OCC1CN(C(=O)Oc2ccccc2)CCC1c1ccc(F)cc1 (stereo not drawn)
189 to 191	CCn1c(Cc2ccc(C)cc2)nnc1[C@@H](C)NS(=O)(=O)c1ccc(Cl)c(Cl)c1
218 to 220	CCOC(=O)C(=O)c1c[nH]c2ccc(CNS(C)(=O)=O)cc12
79 to 82	CC(C)c1c(O)cccc1O
119 to 120	CCCOc1cc(CCCC2OC(=O)NC2=O)ccc1OCc1nc(-c2ccccc2)oc1C (stereo not drawn)
109 to 110	CCOC(=O)CC1c2ccccc2C(=O)N1c1ccccc1 (stereo not drawn)
154 to 156	CC1=C(C)N(c2c(Br)cc(C)cc2Br)C2=NCCN21

melting point [°C]	Structure (SMILES)
150 to 152	Cc1c(Br)cccc1NCc1cc(C(C)(C)C)sc1C(=O)O
232 to 234	COCC(=O)NCc1cccc2c1CN(C1CCC(=O)NC1=O)C2=O (stereo not drawn)
110 to 114	OCc1cccc(Nc2nc(Oc3ccccc3)nc(Oc3ccc(Cl)cc3)n2)c1
91 to 92	CCCCCCCCCCCCCCCCCNC(=O)OCCOCCOC(=O)NCc1ccccn1
146 to 148	NC(=O)C1=NN(c2cccc(COCC(F)(F)C(F)(F)F)c2)C(c2ccccc2)N1 (stereo not drawn)
120 to 121	CCCCOc1cc(CCS(=O)(=O)NC(=O)OC(C)C)n(Cc2ccc(Cl)cc2Cl)n1
168 to 169	O=C(O)CS(=O)(=O)c1ccc2c(-c3ccccc3F)noc2c1
145 to 148	O=C(Cl)c1ccccc1SSc1ccccc1C(=O)Cl
175 to 179	C#CCS(=O)(=O)c1ccc(NC(C)=O)cc1
> 260	O=C(O)c1cc2c(-c3ccccc3)n[nH]c2s1
296 to 300	O=C(O)c1cc(-c2ccc(OC(F)(F)F)cc2)c2c3c(ccc2c1)OCO3
154 to 156	O=C(O)COc1c(-c2ccccc2)cc([N+](=O)[O-])cc1-c1ccccc1
85 to 93	Cc1noc(NS(=O)(=O)c2ccccc2-c2ccc(-c3cocn3)cc2)c1C
173 to 174	COc1ccc2cc(CC(=O)O)ccc2c1
130	COc1cc(N)c(Cl)cc1C(=O)N[C@H]1CCN(CC#N)C[C@H]1OC (relative stereo)
